# Test results published in patent US8101550B2, “Anthranilic acid diamide derivative with hetero-aromatic and hetero-cyclic substituents” (Bayer Cropscience AG, priority 2006, dated 2012).
# Test: log P determination by HPLC on reverse-phase column (EEC Directive 79/831 Annex V.A8)
# Type: physicochemical
# Settings: HPLC on reverse-phase column
# Experimental: The log P values stated in the foregoing tables and preparation examples are determined in accordance with EEC Directive 79/831 Annex V.A8 by means of HPLC (High Performance Liquid Chromatography) on a reverse-phase column (C 18). Temperature: 43° C.
# The determination by LC-MS in the acidic range takes place at a pH of 2.7 using 0.1% aqueous formic acid and acetonitrile (containing 0.1% formic acid) as eluents; linear gradient from 10% acetonitrile to 95% acetonitrile.
# Calibration is with unbranched alkan-2-ones (having 3 to 16 carbon atoms) of known log P value (log P values determined from the retention times by linear interpolation between two successive alkanones).
row,SMILES,logP
1,CNC(=O)c1cc(Cl)cc(C)c1NC(=O)c1cc(Cn2nnn(-c3ccc(Cl)cc3)c2=O)nn1-c1ncccc1Cl [I-1-38],3.28
2,CNC(=O)c1cc(Cl)cc(C)c1NC(=O)c1cc(Cn2nc(C(F)(F)F)nc2C(F)(F)F)nn1-c1c(Cl)cccc1Cl [I-1-41],4.13
3,CNC(=O)c1cc(Cl)cc(C)c1NC(=O)c1cc(Cn2cc(C(F)(F)F)cn2)nn1-c1ncccc1Cl [I-1-42],2.76
4,Cc1cc(Cl)cc(C(=O)NC(C)C)c1NC(=O)c1cc(Cn2cc(C(F)(F)F)cn2)nn1-c1ncccc1Cl [I-1-43],3.20
5,CNC(=O)c1cc(Cl)cc(C)c1NC(=O)c1cc(Cn2ccc(C(F)(F)F)n2)nn1-c1ncccc1Cl [I-1-44],2.92
6,CNC(=O)c1cc(Cl)cc(C)c1NC(=O)c1cc(Cn2cc(I)cn2)nn1-c1ncccc1Cl [I-1-45],2.67
7,Cc1cc(Cl)cc(C(=O)NC2CC2)c1NC(=O)c1cc(Cn2cc(C(F)(F)C(F)(F)F)c(C(F)(F)C(F)(F)F)n2)nn1-c1ncccc1Cl [I-1-46],4.58
8,Cc1cc(Cl)cc(C(=O)NCC#N)c1NC(=O)c1cc(Cn2cc(C(F)(F)C(F)(F)F)c(C(F)(F)C(F)(F)F)n2)nn1-c1ncccc1Cl [I-1-47],4.31
9,Cc1cc(Cl)cc(C(N)=O)c1NC(=O)c1cc(Cn2cc(C(F)(F)C(F)(F)F)c(C(F)(F)C(F)(F)F)n2)nn1-c1ncccc1Cl [I-1-48],4.15
10,Cc1cc(Cl)cc(C(=O)NCC#N)c1NC(=O)c1cc(Cn2nc(C(F)(F)F)nc2C(F)(F)F)nn1-c1ncccc1Cl [I-1-49],3.97
11,Cc1cc(Cl)cc(C(N)=O)c1NC(=O)c1cc(Cn2nc(C(F)(F)F)nc2C(F)(F)F)nn1-c1ncccc1Cl [I-1-50],3.88
12,Cc1cc(Cl)cc(C(=O)NC(C)C)c1NC(=O)c1cc(Cn2nnn(-c3c(C)cccc3Cl)c2=O)nn1-c1ncccc1Cl [I-1-51],3.52
13,Cc1cc(Br)cc(C(=O)NC2CC2)c1NC(=O)c1cc(Cn2cc(C(F)(F)C(F)(F)F)c(C(F)(F)C(F)(F)F)n2)nn1-c1ncccc1Cl [I-1-52],4.59
14,Cc1cc(Br)cc(C(N)=O)c1NC(=O)c1cc(Cn2cc(C(F)(F)C(F)(F)F)c(C(F)(F)C(F)(F)F)n2)nn1-c1ncccc1Cl [I-1-53],4.17
15,Cc1cc(Cl)cc(C(=O)NC2CC2)c1NC(=O)c1cc(Cn2nc(C(F)(F)F)nc2C(F)(F)F)nn1-c1ncccc1Cl [I-1-54],3.61
16,Cc1cc(Cl)cc(C(=O)NCC#N)c1NC(=O)c1cc(Cn2nc(C(F)(F)F)nc2C(F)(F)F)nn1-c1ncccc1Cl [I-1-55],3.40
17,Cc1cc(Br)cc(C(=O)NCC#N)c1NC(=O)c1cc(Cn2nc(C(F)(F)F)nc2C(F)(F)F)nn1-c1ncccc1Cl [I-1-56],3.44
18,Cc1cc(Br)cc(C(=O)NC2CC2)c1NC(=O)c1cc(Cn2nc(C(F)(F)F)nc2C(F)(F)F)nn1-c1ncccc1Cl [I-1-57],3.67
19,CNC(=O)c1cc(Br)cc(C)c1NC(=O)c1cc(Cn2nc(C(F)(F)F)cc2C(F)(F)F)nn1-c1ncccc1Cl [I-1-58],3.76
20,Cc1cc(Br)cc(C(=O)NCC#N)c1NC(=O)c1cc(Cn2nc(C(F)(F)F)cc2C(F)(F)F)nn1-c1ncccc1Cl [I-1-59],3.65
21,Cc1cc(Br)cc(C(=O)NC2CC2)c1NC(=O)c1cc(Cn2nc(C(F)(F)F)cc2C(F)(F)F)nn1-c1ncccc1Cl [I-1-60],3.91
22,Cc1cc(Br)cc(C(N)=O)c1NC(=O)c1cc(Cn2nc(C(F)(F)F)cc2C(F)(F)F)nn1-c1ncccc1Cl [I-1-61],3.53
23,CNC(=O)c1cc(Cl)cc(C)c1NC(=O)c1cc(Cn2cc(I)c(C(F)(F)F)n2)nn1-c1ncccc1Cl [I-1-62],3.41
24,Cc1cc(Cl)cc(C(=O)NC(C)C)c1NC(=O)c1cc(Cn2cc(I)c(C(F)(F)F)n2)nn1-c1ncccc1Cl [I-1-63],3.85
25,CNC(=O)c1cc(Cl)cc(C)c1NC(=O)c1cc(Cn2cc(C(F)(F)C(F)(F)F)cn2)nn1-c1ncccc1Cl [I-1-64],3.21
26,Cc1cc(Cl)cc(C(=O)NC(C)C)c1NC(=O)c1cc(Cn2cc(C(F)(F)C(F)(F)F)cn2)nn1-c1ncccc1Cl [I-1-65],3.67

row,SMILES,logP
1,CNC(=O)c1cc(Cl)cc(C)c1NC(=O)c1cc(Cn2cc(Br)c(C(F)(F)F)n2)nn1-c1ncccc1Cl [I-1-66],3.38
2,Cc1cc(Cl)cc(C(=O)NC(C)C)c1NC(=O)c1cc(Cn2cc(Br)c(C(F)(F)F)n2)nn1-c1ncccc1Cl [I-1-67],3.78
3,CNC(=O)c1cc(Br)cc(C)c1NC(=O)c1cc(Cn2cc(Br)c(C(F)(F)F)n2)nn1-c1ncccc1Cl [I-1-68],3.46
4,Cc1cc(Br)cc(C(=O)NC(C)C)c1NC(=O)c1cc(Cn2cc(Br)c(C(F)(F)F)n2)nn1-c1ncccc1Cl [I-1-69],3.92
5,CNC(=O)c1cc(Br)cc(C)c1NC(=O)c1cc(Cn2cc(Cl)c(C(F)(F)C(F)(F)F)n2)nn1-c1ncccc1Cl [I-1-70],3.94
6,Cc1cc(Br)cc(C(=O)NC(C)C)c1NC(=O)c1cc(Cn2cc(Cl)c(C(F)(F)C(F)(F)F)n2)nn1-c1ncccc1Cl [I-1-71],4.40
7,Cc1cc(Br)cc(C(=O)NC2CC2)c1NC(=O)c1cc(Cn2cc(Cl)c(C(F)(F)C(F)(F)F)n2)nn1-c1ncccc1Cl [I-1-72],4.14
8,Cc1cc(Br)cc(C(=O)NCC#N)c1NC(=O)c1cc(Cn2cc(Cl)c(C(F)(F)C(F)(F)F)n2)nn1-c1ncccc1Cl [I-1-73],3.87
9,Cc1cc(Br)cc(C(N)=O)c1NC(=O)c1cc(Cn2cc(Cl)c(C(F)(F)C(F)(F)F)n2)nn1-c1ncccc1Cl [I-1-74],3.68
10,CSC[C@H](C)NC(=O)c1cc(Cl)cc(C)c1NC(=O)c1cc(Cn2nc(C(F)(F)F)nc2C(F)(F)F)nn1-c1ncccc1Cl [I-1-75],4.04
11,CCNC(=O)OC[C@H](C)NC(=O)c1cc(Cl)cc(C)c1NC(=O)c1cc(Cn2nc(C(F)(F)F)nc2C(F)(F)F)nn1-c1ncccc1Cl [I-1-77],3.58
12,CNC(=O)OC[C@H](C)NC(=O)c1cc(Cl)cc(C)c1NC(=O)c1cc(Cn2nc(C(F)(F)F)nc2C(F)(F)F)nn1-c1ncccc1Cl [I-1-78],3.36
13,Cc1cc(Cl)cc(C(=O)NCC#N)c1NC(=O)c1cc(Cn2nc(C(F)(F)F)nc2C(F)(F)F)nn1-c1ncccc1Cl [I-1-79],3.62
14,CNC(=O)c1cc(Br)cc(C)c1NC(=O)c1cc(Cn2ccc(C(F)(F)F)n2)nn1-c1ncccc1Cl [I-1-80],2.99
15,Cc1cc(Br)cc(C(=O)NC(C)C)c1NC(=O)c1cc(Cn2ccc(C(F)(F)F)n2)nn1-c1ncccc1Cl [I-1-81],3.46
16,Cc1cc(Br)cc(C(=O)NC2CC2)c1NC(=O)c1cc(Cn2ccc(C(F)(F)F)n2)nn1-c1ncccc1Cl [I-1-82],3.18
17,Cc1cc(Br)cc(C(N)=O)c1NC(=O)c1cc(Cn2ccc(C(F)(F)F)n2)nn1-c1ncccc1Cl [I-1-83],2.75
18,CSC[C@H](C)NC(=O)c1cccc(C)c1NC(=O)c1cc(Cn2nc(C(F)(F)F)nc2C(F)(F)F)nn1-c1ncccc1Cl [I-1-84],3.62
19,Cc1cc(Br)cc(C(=O)NCC#N)c1NC(=O)c1cc(Cn2ccc(C(F)(F)F)n2)nn1-c1ncccc1Cl [I-1-85],2.98
20,CNC(=O)c1cc(Cl)cc(C)c1NC(=O)c1cc(Cn2nc(C(F)(F)C(F)(F)F)nc2C(F)(F)F)nn1-c1ncccc1Cl [I-1-86],3.78
21,Cc1cccc(C(=O)N[C@@H](C)CS(C)(=O)=O)c1NC(=O)c1cc(Cn2nc(C(F)(F)F)nc2C(F)(F)F)nn1-c1ncccc1Cl [I-1-87],2.92
22,CNC(=O)c1cc(Cl)cc(C)c1NC(=O)c1cc(Cn2nnn(-c3ccc(C(F)(F)F)cc3)c2=O)nn1-c1ncccc1Cl [I-1-88],3.61
23,Cc1cc(Cl)cc(C(=O)NC(C)C)c1NC(=O)c1cc(Cn2nnn(-c3ccc(C(F)(F)F)cc3)c2=O)nn1-c1ncccc1Cl [I-1-89],3.96
24,CNC(=O)c1cc(Cl)cc(C)c1NC(=O)c1cc(Cn2nnn(-c3cc(C(F)(F)F)cc(C(F)(F)F)c3)c2=O)nn1-c1ncccc1Cl [I-1-90],4.08
25,Cc1cc(Cl)cc(C(=O)NC(C)C)c1NC(=O)c1cc(Cn2nnn(-c3cc(C(F)(F)F)cc(C(F)(F)F)c3)c2=O)nn1-c1ncccc1Cl [I-1-91],4.51
26,Cc1cccc(C(=O)NC(C)C[S+](C)[O-])c1NC(=O)c1cc(Cn2nc(C(F)(F)F)nc2C(F)(F)F)nn1-c1ncccc1Cl (stereo not shown) [I-1-92],2.65

# Same assay, conditions: reverse-phase C18 HPLC column; HPLC, reverse-phase column (C 18), 43° C., acidic range pH 2.7; read-out: logP
row,chromatographic logP,SMILES
1,5.11,"Cc1cc(Cl)cc2c(=O)oc(-c3cc(Cn4nc(C(F)(F)F)cc4C(F)(F)F)nn3-c3ncccc3Cl)nc12 [Example 2, 2-[5-(3,5-Bistrifluoromethylpyrazol-1-ylmethyl)-2-(3-chloropyridin-2-yl)-2H-pyrazol-3-yl]-6-chloro-8-methylbenzo[d][1,3]oxazin-4-one]"
2,2.86,"O=C(O)c1cc(Cn2nc(C(F)(F)F)cc2C(F)(F)F)nn1-c1ncccc1Cl [Example 3, 5-(3,5-Bistrifluoromethylpyrazol-1-ylmethyl)-2-(3-chloropyridin-2-yl)-2H-pyrazole-3-carboxylic acid]"
3,3.71,"COC(=O)c1cc(Cn2nc(C(F)(F)F)cc2C(F)(F)F)nn1-c1ncccc1Cl [Example 4, Methyl 5-(3,5-bistrifluoromethylpyrazol-1-ylmethyl)-2-(3-chloropyridin-2-yl)-2H-pyrazole-3-carboxylate]"
4,1.55,"COC(=O)c1cc(COS(C)(=O)=O)nn1-c1ncccc1Cl [Example 5, Methyl 2-(3-chloropyridin-2-yl)-5-methanesulphonyloxymethyl-2H-pyrazole-3-carboxylate]"
5,1.26,"COC(=O)c1cc(CO)nn1-c1ncccc1Cl [Example 6, Methyl 2-(3-chloropyridin-2-yl)-5-hydroxymethyl-2H-pyrazole-3-carboxylate]"
6,1.97,"COC(=O)c1cc(C(=O)OC)n(-c2ncccc2Cl)n1 [Example 7, Dimethyl 1-(3-chloropyridin-2-yl)-1H-pyrazole-3,5-dicarboxylate]"
